Patent US20250313807A1, “SYSTEMS AND METHODS FOR CHARACTERIZATION OF POLYCYSTIC KIDNEY DISEASE” (University of Washington, priority 2022, published 2025)

How the values were obtained:
[1] = system: PKD cysts of Pkd1^RC/RC mice; conditions: systemic perfusion with PBS+1 mM NBD-Glucose, kidney tissue sections
Description: To determine whether PKD cysts absorbed glucose in vivo, a methodology was devised to inject mice with NBD glucose and immediately retrieve their kidneys (FIG. 6D).
For perfusion experiments, NBD Glucose was freshly dissolved in PBS to a concentration of 1 mM. Freshly sacrificed Pkd1^RC/RC mice (>8 months old) were incised through the chest and nicked at the vena cava with a 27-gauge needle. Keeping pressure on the vena cava, mice were perfused systemically through the heart with a syringe containing 10 mL of PBS, followed by a second syringe containing 5 mL of either PBS alone (control) or PBS+1 mM NBD-Glucose. Kidneys were harvested immediately and embedded fresh without fixation or sucrose equilibration in OCT. Cryostat-cut mouse kidney sections (20 μm) were mounted in OCT and imaged on a confocal microscope with 10× objective. […] Mice were maintained on a standard diet under standard pathogen-free housing conditions, with food and water freely available.

[2] = system: PKD organoids
Description: The low height of the channels in the flow devices enabled continuous time lapse imaging of fluorescent molecules without high background fluorescence.
Organoid perfusion in microfluidic chip. Ibidi μ-Slide VI0.4 were coated with 3.0% Reduced Growth Factor Geltrex (Life Technologies) and left at 37° C. overnight to solidify. Kidney organoids (21-40 d) were picked from adhered culture plates, pipetted into the slide channels (2-3 per channel) with RB, and left for 24 hrs at 37° C. to attach. Organoids were distributed randomly within the channel. For the fluidic condition, 60 mL syringes filled with RB were attached to channels using clear tubing (Cole-Parmer, 0.02″ ID, 0.083″ OD). A clamp was used to close off the tubing, and the media in the syringe was changed to 25 mL RB+36.5 μM 2-NBD-Glucose fluorescent glucose (Abcam ab146200). […]
Image/video collection. […] Experiments in microfluidic devices were recorded for 6 hours. […] Cyst growth rate in microfluidic devices was therefore calculated on an individual basis, when each cyst reached its maximal volume, which varied for each sample from 1 hour to 5 hours after the start of the experiment. For longer-term experiments conducted in static 96-well cultures, organoids were imaged at regular intervals (typically 24 hours) and analyzed at the endpoint indicated in the figure graphs. […]

[3] = system: PKD organoids; experiment: live/dead staining (calcein AM/propidium iodide) of cystic organoids; assay type: cell-based, human; conditions: 24 and 48 hours of treatment
[4] = system: PKD organoid cysts; experiment: cyst expansion in PKD organoids under static conditions (96-well plate); assay type: cell-based, human
Description: To test functionally whether cyst growth is linked to glucose transport in human organoids, cyst expansion was quantified in increasing concentrations of D-glucose under static conditions (96-well plate).
To test this hypothesis, the effects of pharmacological transport inhibitors on cysts were examined in static conditions.
Kidney organoid differentiation. […] 5,000-20,000 hPSCs per well were placed in each 24-well plate pre-coated with 300 μL of DMEM-F12 containing 0.2 mg/mL Matrigel and sandwiched the following day with 0.2 mg/mL Matrigel in mTeSR1 ([sequence] Technologies, Vancouver) to produce scattered, isolated spheroid colonies. 48 hrs after sandwiching, hPSC spheroids were treated with 12 μM CHIR99021 (Tocris Bioscience) for 36 h, then changed to RB (Advanced RPMI+1× Glutamax+1×B27 Supplement, all from Thermo Fisher Scientific) after 48 hours, and replaced with fresh RB every 3 days thereafter.
Image/video collection. Image collection was performed on a Nikon Ti Live-Cell Inverted Widefield microscope inside of an incubated live imaging chamber supplemented with 5% carbon dioxide. […] For longer-term experiments conducted in static 96-well cultures, organoids were imaged at regular intervals (typically 24 hours) and analyzed at the endpoint indicated in the figure graphs. Phase contrast and GFP (200 ms exposure) images were taken every 5 minutes for a maximum of 12 hours. […]

With `O=C[C@H](Nc1ccc([N+](=O)[O-])c2nonc12)[C@@H](O)[C@H](O)[C@H](O)CO` [NBD glucose, 2-(N-(7-Nitrobenz-2-oxa-1,3-diazol-4-yl)Amino)-2-Deoxyglucose] the “uptake by cyst-lining epithelia and surrounding interstitium” value [1] was “readily took up NBD glucose”, the “absorption into organoid proximal and distal tubules (immunofluorescence)” value ([2]; organoid tubules) was “absorbed into and accumulated inside organoid proximal and distal tubules” and the “washout from loaded PKD organoids” value ([2]; switched into media containing only unlabeled glucose, continuous flow) was “disappeared rapidly”.
For `O=C(CCc1ccc(O)cc1)c1c(O)cc(O)cc1O` [Phloretin, phloretin], the “toxicity by live-dead staining” value [3] was “no significant toxicity” and the “decrease of cyst size” value ([4]; 800 μM phloretin, 15 mM glucose) was 77%.
`CCCN(CCC)S(=O)(=O)c1ccc(C(=O)O)cc1` [probenecid] was tested, and the “effect on cyst growth” value ([4]; 15 mM D-Glucose, non-toxic doses) was “no effect on cyst growth”.
